Reference: ChEMBL document CHEMBL5150014, “Discovery and Development of Dolastatin 10-Derived Antibody Drug Conjugate Anticancer Drugs” (J Nat Prod, 2022)
Starred links: 1 amine or outer side, 2 acyl side, 3 side chain; linkers in the order of their positions; H or OH if unused. Non-standard residues stand in square brackets, D forms with d. Residues, ends and D or L forms follow the SMILES beside them. *: point of attachment. X2 = CO[C@H]([C@@H](C)C(=O)[*:2])[C@@H]1C[C@@H]2C[C@@H]2N1[*:1]; NMeVal(N-(CH2)3COOH) = CC(C)[C@@H](C(=O)*)N(C)CCCC(=O)O; Dolaproine = CO[C@@H]([C@@H]1CCCN1)[C@@H](C)C(=O)O; Dil = CC[C@H](C)[C@H](NC)[C@@H](CC(=O)O)OC; Phe(2-Cl) = N[C@@H](Cc1ccccc1Cl)C(=O)O; Phe(2-F) = N[C@@H](Cc1ccccc1F)C(=O)O; NMe2Val = CC(C)[C@@H](C(=O)*)N(C)C; Oxazinan2yl(1,2) = C1CCN(*)OC1; X4 = C1=C[C@H]2CC[C@@H]1N(*)O2; NMeV = CN[C@H](C(=O)O)C(C)C; NHOH = ON*

What follows are molecules tested on HT-29 (assay: Cytotoxicity against human HT-29 cells assessed as cell growth inhibition).
Assay type: functional, cell-based

Structure (SMILES)	IC50 [nM]
CC[C@H](C)[C@@H]([C@@H](CC(=O)N1CCC[C@H]1[C@H](OC)[C@@H](C)C(=O)N[C@@H](Cc1c[nH]c2ccccc12)C(N)=O)OC)N(C)C(=O)[C@@H](NC(=O)[C@H](C(C)C)N(C)CCCC(=O)O)C(C)C ({NMeVal(N-(CH2)3COOH)}-V[Dil][Dolaproine]W-NH2)	16
CC[C@H](C)[C@@H]([C@@H](CC(=O)N1CCC[C@H]1[C@H](OC)[C@@H](C)C(=O)NC1(C(=O)N2CCCCO2)C[C@@H]1c1ccccc1)OC)N(C)C(=O)[C@@H](NC(=O)[C@H](C(C)C)N(C)C)C(C)C (some centres not stated)	0.5
CC[C@H](C)[C@@H]([C@@H](CC(=O)N1CCC[C@H]1[C@H](OC)[C@@H](C)C(=O)N[C@@H](Cc1c[nH]c2ccccc12)C(=O)N1CCCCO1)OC)N(C)C(=O)[C@@H](NC(=O)[C@H](C(C)C)N(C)C)C(C)C (NMe2Val-V[Dil][Dolaproine]W-{Oxazinan2yl(1,2)})	0.5
CC[C@H](C)[C@@H]([C@@H](CC(=O)N1CCC[C@H]1[C@H](OC)[C@@H](C)C(=O)N[C@H](/C=C/c1ccccc1)Cc1ccccc1)OC)N(C)C(=O)[C@@H](NC(=O)[C@H](C(C)C)N(C)CCCC(=O)O)C(C)C	0.3
CC[C@H](C)[C@@H]([C@@H](CC(=O)N1CCC[C@H]1[C@H](OC)[C@@H](C)C(=O)NC1(C(=O)N2Cc3ccccc3CO2)C[C@@H]1c1ccccc1)OC)N(C)C(=O)[C@@H](NC(=O)[C@H](C(C)C)N(C)C)C(C)C (some centres not stated)	1.2
CC[C@H](C)[C@@H]([C@@H](CC(=O)N1CCC[C@H]1[C@H](OC)[C@@H](C)C(=O)N[C@@H](Cc1ccccc1)C(=O)N1O[C@H]2C=C[C@@H]1CC2)OC)N(C)C(=O)[C@@H](NC(=O)[C@H](C(C)C)N(C)C)C(C)C (NMe2Val-V[Dil][Dolaproine]F-X4)	0.5
CC[C@H](C)[C@@H]([C@@H](CC(=O)N1CCC[C@H]1[C@H](OC)[C@@H](C)C(=O)N[C@H](/C=C\c1ccccc1)Cc1ccccc1)OC)N(C)C(=O)[C@@H](NC(=O)[C@H](C(C)C)N(C)CCCC(=O)O)C(C)C	3.3
CC[C@H](C)[C@@H]([C@@H](CC(=O)N1CCC[C@H]1[C@H](OC)[C@@H](C)C(=O)N[C@@H](Cc1ccccc1)c1nnc(-c2ccccc2)o1)OC)N(C)C(=O)[C@@H](NC(=O)[C@H](C(C)C)N(C)CCCC(=O)O)C(C)C	0.1

What follows are molecules tested on SK-BR-3 (assay: Cytotoxicity against human SK-BR-3 cells assessed as cell growth inhibition incubated for 72 hrs by CellTiter-Glo assay).
Assay type: functional

Structure (SMILES)	GI50 [nM]
CC[C@H](C)[C@@H]([C@@H](CC(=O)N1CCC[C@H]1[C@H](OC)[C@@H](C)C(=O)N[C@@H](CC(C)C)C(=O)NO)OC)N(C)C(=O)[C@@H](NC(=O)[C@H](C(C)C)N(C)C)C(C)C (NMe2Val-V[Dil][Dolaproine]L-{NHOH})	3
CC[C@H](C)[C@@H]([C@@H](CC(=O)N1[C@H]2C[C@H]2C[C@H]1[C@H](OC)[C@@H](C)C(=O)N[C@@H](Cc1ccccc1Cl)C(=O)O)OC)N(C)C(=O)[C@@H](NC(=O)[C@@H](NC)C(C)C)C(C)C (H-[NMeV]V[Dil][X2][Phe(2-Cl)]-OH)	1.06
CC[C@H](C)[C@@H]([C@@H](CC(=O)N1[C@H]2C[C@H]2C[C@H]1[C@H](OC)[C@@H](C)C(=O)N[C@@H](Cc1ccccc1)C(=O)O)OC)N(C)C(=O)[C@@H](NC(=O)[C@@H](NC)C(C)C)C(C)C (HELM PEPTIDE1{[meV].V.[CC[C@H](C)[C@@H]([C@@H](CC(=O)[*:2])OC)N(C)[*:1]].[CO[C@H]([C@@H](C)C(=O)[*:2])[C@@H]1C[C@@H]2C[C@@H]2N1[*:1]].F}$$$$V2.0)	1.11
CC[C@H](C)[C@@H]([C@@H](CC(=O)N1CCC[C@H]1[C@H](OC)[C@@H](C)C(=O)N[C@@H](Cc1ccccc1F)C(=O)O)OC)N(C)C(=O)[C@@H](NC(=O)[C@@H](NC)C(C)C)C(C)C (H-[NMeV]V[Dil][Dolaproine][Phe(2-F)]-OH)	81.6
